Among the data in ChEMBL document CHEMBL5108051, “Improving the Antimicrobial Performance of Amphiphilic Cationic Antimicrobial Peptides Using Glutamic Acid Full-Scan and Positive Charge Compensation Strategies” (J Med Chem, 2022) are MIC and MHC10 values, retold here.

Data set [1] deals with Klebsiella pneumoniae. As to the kind of experiment: Antibacterial activity against Klebsiella pneumoniae ATCC 700603 assessed as growth inhibition measured after 18 to 24 hrs by CLSI based broth microdilution method. The class given is functional. Conditions: time 18-24 hrs.
In data set [2] the test system is Bacillus subtilis. As to the kind of experiment: Antibacterial activity against Bacillus subtilis ATCC 23857 assessed as growth inhibition measured after 18 to 24 hrs by CLSI based broth microdilution method. As to conditions: time 18-24 hrs. The data set is classed as functional. Background: Broth dilution looks for growth in wells or tubes with falling amounts of substance.

Data set [3] relates to Pseudomonas aeruginosa. Briefly: Antibacterial activity against Pseudomonas aeruginosa ATCC 27853 assessed as growth inhibition measured after 18 to 24 hrs by CLSI based broth microdilution method. The data set is classed as functional. Conditions: time 18-24 hrs.
Data set [4] concerns Escherichia coli. Briefly: Antibacterial activity against Escherichia coli ATCC 25922 assessed as growth inhibition measured after 18 to 24 hrs by CLSI based broth microdilution method. The class given is functional. Conditions: time 18-24 hrs.
For data set [5], the system named is Staphylococcus aureus. Briefly: Antibacterial activity against Staphylococcus aureus ATCC 25923 assessed as growth inhibition measured after 18 to 24 hrs by CLSI based broth microdilution method. Conditions: time 18-24 hrs. The data set is classed as functional.
Data set [6] deals with Erythrocyte. Briefly: Hemolytic activity against mouse RBC measured after 1 hrs. The data set is classed as toxicity, cell-based.

In brackets after ≈: the same amount, converted by molar mass. Peptide text beside a SMILES is read from it. Some results are limits rather than exact numbers.

One may read the MIC as the lowest concentration found to suppress growth. Consider `CC[C@H](C)[C@H](NC(=O)[C@@H]1CCCN1C(=O)[C@H](CC(C)C)NC(=O)[C@@H](N)CCC(=O)O)C(=O)N[C@H](C(=O)N[C@@H](C)C(=O)N[C@@H](CCCCN)C(=O)N[C@@H](CC(C)C)C(=O)N[C@@H](CC(C)C)C(=O)N[C@@H](CO)C(=O)NCC(=O)N[C@@H](CC(C)C)C(=O)N[C@@H](CC(C)C)C(N)=O)C(C)C` (H-ELPIVAKLLSGLL-NH2), for which the minimum inhibitory concentration (MIC) in data set [1], in data set [2], in data set [3], in data set [4] and in data set [5] was over 128 µM in each case. The MHC10 in data set [6] is over 256 µM.

With `CC[C@H](C)[C@H](NC(=O)[C@@H]1CCCN1C(=O)[C@H](CCC(=O)O)NC(=O)[C@@H](N)Cc1ccccc1)C(=O)N[C@H](C(=O)N[C@@H](C)C(=O)N[C@@H](CCCCN)C(=O)N[C@@H](CC(C)C)C(=O)N[C@@H](CC(C)C)C(=O)N[C@@H](CO)C(=O)NCC(=O)N[C@@H](CC(C)C)C(=O)N[C@@H](CC(C)C)C(N)=O)C(C)C` (H-FEPIVAKLLSGLL-NH2), the minimal inhibitory concentration (MIC) in data set [1], in data set [2], in data set [3], in data set [4] and in data set [5] was over 128 µM throughout. This compound gave an MHC10 in data set [6] of over 256 µM.

Consider `CC[C@H](C)[C@H](NC(=O)[C@H](CCC(=O)O)NC(=O)[C@H](CC(C)C)NC(=O)[C@@H](N)Cc1ccccc1)C(=O)N[C@H](C(=O)N[C@@H](C)C(=O)N[C@@H](CCCCN)C(=O)N[C@@H](CC(C)C)C(=O)N[C@@H](CC(C)C)C(=O)N[C@@H](CO)C(=O)NCC(=O)N[C@@H](CC(C)C)C(=O)N[C@@H](CC(C)C)C(N)=O)C(C)C` (H-FLEIVAKLLSGLL-NH2), for which the minimal inhibitory concentration (MIC) in data set [1] was over 128 µM; in data set [2] it was 16 µM (≈ 22.6 µg/mL); in data set [3], over 128 µM; in data set [4] it was over 128 µM; in data set [5], 16 µM (≈ 22.6 µg/mL). The compound further yielded an MHC10 in data set [6] of 16.06 µM.

As for `CC(C)C[C@H](NC(=O)[C@H](CC(C)C)NC(=O)CNC(=O)[C@H](CO)NC(=O)[C@H](CC(C)C)NC(=O)[C@H](CC(C)C)NC(=O)[C@H](CCCCN)NC(=O)[C@H](C)NC(=O)[C@@H](NC(=O)[C@H](CCC(=O)O)NC(=O)[C@@H]1CCCN1C(=O)[C@H](CC(C)C)NC(=O)[C@@H](N)Cc1ccccc1)C(C)C)C(N)=O` (H-FLPEVAKLLSGLL-NH2), the MIC in data set [1] was over 128 µM; in data set [2], over 128 µM; in data set [3], over 128 µM; in data set [4] it was 64 µM (≈ 89.5 µg/mL); in data set [5] it was over 128 µM. The same compound returned an MHC10 in data set [6] of over 256 µM.

As for `CC[C@H](C)[C@H](NC(=O)[C@@H]1CCCN1C(=O)[C@H](CC(C)C)NC(=O)[C@@H](N)Cc1ccccc1)C(=O)N[C@@H](CCC(=O)O)C(=O)N[C@@H](C)C(=O)N[C@@H](CCCCN)C(=O)N[C@@H](CC(C)C)C(=O)N[C@@H](CC(C)C)C(=O)N[C@@H](CO)C(=O)NCC(=O)N[C@@H](CC(C)C)C(=O)N[C@@H](CC(C)C)C(N)=O` (H-FLPIEAKLLSGLL-NH2), the minimal inhibitory concentration (MIC) in data set [1], in data set [2], in data set [3], in data set [4] and in data set [5] was over 128 µM in each case. The compound further yielded an MHC10 in data set [6] of over 256 µM.

`CC[C@H](C)[C@H](NC(=O)[C@@H]1CCCN1C(=O)[C@H](CC(C)C)NC(=O)[C@@H](N)Cc1ccccc1)C(=O)N[C@H](C(=O)N[C@@H](C)C(=O)N[C@@H](CCC(=O)O)C(=O)N[C@@H](CC(C)C)C(=O)N[C@@H](CC(C)C)C(=O)N[C@@H](CO)C(=O)NCC(=O)N[C@@H](CC(C)C)C(=O)N[C@@H](CC(C)C)C(N)=O)C(C)C` (H-FLPIVAELLSGLL-NH2): the MIC in data set [1], in data set [2], in data set [3], in data set [4] and in data set [5] was over 128 µM each time. The compound further registered an MHC10 in data set [6] of over 256 µM.

On to `CC[C@H](C)[C@H](NC(=O)[C@@H]1CCCN1C(=O)[C@H](CC(C)C)NC(=O)[C@@H](N)Cc1ccccc1)C(=O)N[C@H](C(=O)N[C@@H](C)C(=O)N[C@@H](CCCCN)C(=O)N[C@@H](CCC(=O)O)C(=O)N[C@@H](CC(C)C)C(=O)N[C@@H](CO)C(=O)NCC(=O)N[C@@H](CC(C)C)C(=O)N[C@@H](CC(C)C)C(N)=O)C(C)C` (H-FLPIVAKELSGLL-NH2), for which the MIC in data set [1], in data set [2], in data set [3], in data set [4] and in data set [5] was over 128 µM each time. The MHC10 in data set [6] is over 256 µM.

On to `CC[C@H](C)[C@H](NC(=O)[C@@H]1CCCN1C(=O)[C@H](CC(C)C)NC(=O)[C@@H](N)Cc1ccccc1)C(=O)N[C@H](C(=O)N[C@@H](C)C(=O)N[C@@H](CCCCN)C(=O)N[C@@H](CC(C)C)C(=O)N[C@@H](CCC(=O)O)C(=O)N[C@@H](CO)C(=O)NCC(=O)N[C@@H](CC(C)C)C(=O)N[C@@H](CC(C)C)C(N)=O)C(C)C` (H-FLPIVAKLESGLL-NH2), for which the minimal inhibitory concentration (MIC) in data set [1], in data set [2], in data set [3], in data set [4] and in data set [5] was over 128 µM throughout. This compound also had an MHC10 in data set [6] of over 256 µM.

Regarding `CC[C@H](C)[C@H](NC(=O)[C@@H]1CCCN1C(=O)[C@H](CC(C)C)NC(=O)[C@@H](N)Cc1ccccc1)C(=O)N[C@H](C(=O)N[C@@H](C)C(=O)N[C@@H](CCCCN)C(=O)N[C@@H](CC(C)C)C(=O)N[C@@H](CC(C)C)C(=O)N[C@@H](CCC(=O)O)C(=O)NCC(=O)N[C@@H](CC(C)C)C(=O)N[C@@H](CC(C)C)C(N)=O)C(C)C` (H-FLPIVAKLLEGLL-NH2), the MIC was over 128 µM in data set [1]; 16 µM (≈ 22.8 µg/mL) in data set [2]; over 128 µM in data set [3]; over 128 µM in data set [4]; 16 µM (≈ 22.8 µg/mL) in data set [5]. In addition, the MHC10 in data set [6] is 69.93 µM.

With `CC[C@H](C)[C@H](NC(=O)[C@@H]1CCCN1C(=O)[C@H](CC(C)C)NC(=O)[C@@H](N)Cc1ccccc1)C(=O)N[C@H](C(=O)N[C@@H](C)C(=O)N[C@@H](CCCCN)C(=O)N[C@@H](CC(C)C)C(=O)N[C@@H](CC(C)C)C(=O)N[C@@H](CCCCN)C(=O)NCC(=O)N[C@@H](CC(C)C)C(=O)N[C@@H](CC(C)C)C(N)=O)C(C)C` (H-FLPIVAKLLKGLL-NH2), the minimal inhibitory concentration (MIC) in data set [1] was over 128 µM; in data set [2], 4 µM (≈ 5.7 µg/mL); in data set [3], over 128 µM; in data set [4], over 128 µM; in data set [5], 8 µM (≈ 11.4 µg/mL). In data set [6], the MHC10 was determined as 27.66 µM.

Consider `CC[C@H](C)[C@H](NC(=O)[C@@H]1CCCN1C(=O)[C@H](CC(C)C)NC(=O)[C@@H](N)Cc1ccccc1)C(=O)N[C@H](C(=O)N[C@@H](C)C(=O)N[C@@H](CCCCN)C(=O)N[C@@H](CC(C)C)C(=O)N[C@@H](CC(C)C)C(=O)N[C@@H](CO)C(=O)N[C@@H](CCC(=O)O)C(=O)N[C@@H](CC(C)C)C(=O)N[C@@H](CC(C)C)C(N)=O)C(C)C` (H-FLPIVAKLLSELL-NH2), for which the minimal inhibitory concentration (MIC) in data set [1] is over 128 µM; in data set [2], 8 µM (≈ 11.6 µg/mL); in data set [3] it was over 128 µM; in data set [4], over 128 µM; in data set [5] it was 16 µM (≈ 23.3 µg/mL). This compound showed an MHC10 in data set [6] of 73.97 µM.

Regarding `CC[C@H](C)[C@H](NC(=O)[C@@H]1CCCN1C(=O)[C@H](CC(C)C)NC(=O)[C@@H](N)Cc1ccccc1)C(=O)N[C@H](C(=O)N[C@@H](C)C(=O)N[C@@H](CCCCN)C(=O)N[C@@H](CC(C)C)C(=O)N[C@@H](CC(C)C)C(=O)N[C@@H](CO)C(=O)NCC(=O)N[C@@H](CCC(=O)O)C(=O)N[C@@H](CC(C)C)C(N)=O)C(C)C` (H-FLPIVAKLLSGEL-NH2), the minimum inhibitory concentration (MIC) in data set [1], in data set [2], in data set [3], in data set [4] and in data set [5] was over 128 µM throughout. This compound registered an MHC10 in data set [6] of over 256 µM.

As to `CC[C@H](C)[C@H](NC(=O)[C@@H]1CCCN1C(=O)[C@H](CC(C)C)NC(=O)[C@@H](N)Cc1ccccc1)C(=O)N[C@H](C(=O)N[C@@H](C)C(=O)N[C@@H](CCCCN)C(=O)N[C@@H](CC(C)C)C(=O)N[C@@H](CC(C)C)C(=O)N[C@@H](CO)C(=O)NCC(=O)N[C@@H](CC(C)C)C(=O)N[C@@H](CCC(=O)O)C(N)=O)C(C)C` (H-FLPIVAKLLSGLE-NH2), the MIC in data set [1], in data set [2], in data set [3], in data set [4] and in data set [5] was over 128 µM in each case. The same compound gave an MHC10 in data set [6] of over 256 µM.

`CC[C@H](C)[C@H](NC(=O)[C@@H]1CCCN1C(=O)[C@H](CC(C)C)NC(=O)[C@@H](N)Cc1ccccc1)C(=O)N[C@H](C(=O)N[C@@H](CCC(=O)O)C(=O)N[C@@H](CCCCN)C(=O)N[C@@H](CC(C)C)C(=O)N[C@@H](CC(C)C)C(=O)N[C@@H](CO)C(=O)NCC(=O)N[C@@H](CC(C)C)C(=O)N[C@@H](CC(C)C)C(N)=O)C(C)C` (H-FLPIVEKLLSGLL-NH2): the MIC in data set [1] was over 128 µM; in data set [2], over 128 µM; in data set [3], over 128 µM; in data set [4], 64 µM (≈ 92.2 µg/mL); in data set [5], over 128 µM. In addition, in data set [6], the MHC10 is over 256 µM.

As to `CC(C)C[C@H](NC(=O)[C@H](CC(C)C)NC(=O)CNC(=O)[C@H](CCC(=O)O)NC(=O)[C@H](CC(C)C)NC(=O)[C@H](CC(C)C)NC(=O)[C@H](CCCCN)NC(=O)[C@H](CCCCN)NC(=O)[C@@H](NC(=O)[C@H](CCCCN)NC(=O)[C@@H]1CCCN1C(=O)[C@H](CC(C)C)NC(=O)[C@@H](N)Cc1ccccc1)C(C)C)C(N)=O` (H-FLPKVKKLLEGLL-NH2), the minimal inhibitory concentration (MIC) in data set [1] was 64 µM (≈ 95.8 µg/mL); in data set [2], 128 µM (≈ 192 µg/mL); in data set [3], 32 µM (≈ 47.9 µg/mL); in data set [4], 16 µM (≈ 24 µg/mL); in data set [5], 128 µM (≈ 192 µg/mL). The MHC10 in data set [6] was over 256 µM.
